Source: ChEMBL document CHEMBL1201862, “PubChem BioAssay data set” (2004)
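Tested at 5 concentrations; 48 h exposure; 96-well plates; endpoints linearly interpolated, else capped at highest concentration. GI50 marks 50% less growth.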 The source made the active and inactive calls. Cut-off read from the data, not from the text of the source: active = GI50 up to about 1.1 µM and inactive = higher.

Columns and labels:
Test in all cases: growth of human tumour cells (NCI), 48 h
[1] = tested on: SN12C
[2] = tested on: UACC-257
[3] = tested on: UACC-62
[4] = tested on: HL-60
[5] = tested on: KM12
[6] = tested on: TK-10
[7] = tested on: SK-MEL-5
[8] = tested on: A549
[9] = tested on: SK-MEL-2
[10] = tested on: HOP-92
[11] = tested on: SF-539
[12] = tested on: CCRF-CEM
[13] = tested on: OVCAR-8
[14] = tested on: CAKI-1
[15] = tested on: HCT-15
[16] = tested on: OVCAR-4
[17] = tested on: K562
[18] = tested on: NCI-H460
[19] = tested on: HOP-62
[20] = tested on: SR

COc1c(C(=O)/C(=N/Nc2ccccc2)C(C)=O)c(O)c(OC)c2occc12
GI50 [1]: 63.7 µM (inactive) | GI50 [2]: 34.9 µM (inactive) | GI50 [3]: 20.5 µM (inactive) | GI50 [4]: 22.6 µM (inactive) | GI50 [5]: 27.7 µM (inactive) | GI50 [6]: 77.1 µM (inactive) | GI50 [7]: 13.7 µM (inactive) | GI50 [8]: 52.6 µM (inactive) | GI50 [9]: 67 µM (inactive) | GI50 [10]: 9.38 µM (inactive) | GI50 [11]: > 100 µM (inactive) | GI50 [12]: 74.1 µM (inactive) | GI50 [13]: 62.2 µM (inactive) | GI50 [14]: > 100 µM (inactive) | GI50 [15]: 56.2 µM | GI50 [16]: > 100 µM (inactive) | GI50 [17]: 53.5 µM (inactive) | GI50 [18]: 38.8 µM (inactive) | GI50 [19]: 97.5 µM (inactive) | GI50 [20]: 35.8 µM (inactive)

O=S(=O)(/N=C(\NO)Nc1ccc(Cl)cc1)c1ccc(-c2ccccn2)s1
GI50 [1]: 24.4 µM (inactive) | GI50 [2]: 34 µM (inactive) | GI50 [3]: 44.2 µM (inactive) | GI50 [4]: 24 µM (inactive) | GI50 [5]: 86.9 µM (inactive) | GI50 [6]: 61.5 µM (inactive) | GI50 [7]: 31.4 µM (inactive) | GI50 [8]: 61 µM (inactive) | GI50 [9]: 46 µM (inactive) | GI50 [10]: 27.4 µM (inactive) | GI50 [11]: 41.4 µM (inactive) | GI50 [12]: 42.8 µM (inactive) | GI50 [13]: 69.5 µM (inactive) | GI50 [14]: 6.25 µM (inactive) | GI50 [15]: 39.7 µM | GI50 [16]: 16.4 µM (inactive) | GI50 [17]: 50.2 µM (inactive) | GI50 [18]: 87.3 µM (inactive) | GI50 [19]: 52.1 µM (inactive) | GI50 [20]: > 100 µM (inactive)

CCc1c(C)c(C#N)c(=S)n(C2OC(COC(C)=O)C(OC(C)=O)C(OC(C)=O)C2OC(C)=O)c1-c1ccccc1 (stereo not given)
GI50 [1]: > 31.6 µM (inactive) | GI50 [2]: > 31.6 µM (inactive) | GI50 [3]: > 10 µM (inactive) | GI50 [4]: > 100 µM (inactive) | GI50 [5]: > 31.6 µM (inactive) | GI50 [6]: 22.1 µM (inactive) | GI50 [7]: > 31.6 µM (inactive) | GI50 [8]: > 31.6 µM (inactive) | GI50 [9]: 21.8 µM (inactive) | GI50 [10]: 22.1 µM (inactive) | GI50 [11]: 23.6 µM (inactive) | GI50 [12]: 33.7 µM (inactive) | GI50 [13]: > 31.6 µM (inactive) | GI50 [14]: 72.3 µM (inactive) | GI50 [15]: > 31.6 µM | GI50 [16]: > 31.5 µM (inactive) | GI50 [17]: 21.1 µM (inactive) | GI50 [18]: > 31.6 µM (inactive) | GI50 [19]: 15.8 µM (inactive) | GI50 [20]: > 31.6 µM (inactive)

Cc1nnc2n1-c1ccccc1N(Cc1ccccc1)CC2
GI50 [1]: 58.7 µM (inactive) | GI50 [2]: 63.1 µM (inactive) | GI50 [3]: 39.6 µM (inactive) | GI50 [4]: 23.6 µM (inactive) | GI50 [5]: 81.1 µM (inactive) | GI50 [6]: 82.6 µM (inactive) | GI50 [7]: 38.2 µM (inactive) | GI50 [8]: 75.7 µM (inactive) | GI50 [9]: 80.7 µM (inactive) | GI50 [10]: 9.55 µM (inactive) | GI50 [11]: > 100 µM (inactive) | GI50 [12]: 17.6 µM (inactive) | GI50 [13]: 56 µM (inactive) | GI50 [14]: 38 µM (inactive) | GI50 [15]: 45.7 µM | GI50 [16]: 71.9 µM (inactive) | GI50 [17]: 20.3 µM (inactive) | GI50 [18]: > 100 µM (inactive) | GI50 [19]: > 100 µM (inactive) | GI50 [20]: 30.4 µM (inactive)
